Results: the supplement of paper PMC10307832

Experiments:
Experiment in all cases: relative viability (nuclei count vs DMSO), 5 days (fraction); higher = more cells survive
[1] = compound: C[C@]1(O)C[C@@H](c2nc(-c3ccc4ccc(-c5ccccc5)nc4c3)c3c(N)nccn32)C1 [Linsitinib] + COc1cc2c(Oc3ccc(NC(=O)C4(C(=O)Nc5ccc(F)cc5)CC4)cc3F)ccnc2cc1OCCCN1CCOCC1 [Foretinib] (partner 0.25 µM)
Procedure, shortened: (§1)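 A single step with final 0.05% Triton X-100, 1% formaldehyde and 1 ug/ml Hoechst fixed the cells and stained nuclei 5 days after treatment. Lung cancer cell lines in 1536-well plates had been treated by pin tool the day after seeding with one drug alone or a fixed anchor-drug dose plus five library-drug doses (not always all listed) in √10 steps, and nuclei were counted on 4× images. Relative viability is the ratio of nuclei in treated wells to nuclei in vehicle wells, taken as the median of duplicate plates.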

[2] = compound: C[C@]1(O)C[C@@H](c2nc(-c3ccc4ccc(-c5ccccc5)nc4c3)c3c(N)nccn32)C1 [Linsitinib] + NC(=O)Nc1cc(-c2cccc(F)c2)sc1C(=O)N[C@H]1CCCNC1 [AZD7762] (partner 0.2 µM)
Procedure, shortened: as §1

[3] = compound: Cc1ccc(C(=O)N(CCCN)[C@@H](c2nc3cc(Cl)ccc3c(=O)n2Cc2ccccc2)C(C)C)cc1 [Ispinesib] + N=C(N)NC(=N)NCCc1ccccc1 [Phenformin] (partner 250 µM)
Procedure, shortened: as §1

NCI-H647
relative viability ([1]; first compound 0.01 µM): 1.14 | relative viability ([1]; first compound 0.03162 µM): 1.23 | relative viability ([1]; first compound 0.1 µM): 1.19 | relative viability ([1]; first compound 1 µM): 1.17 | relative viability ([2]; first compound 0.01 µM): 0.467 | relative viability ([2]; first compound 0.03162 µM): 0.504 | relative viability ([2]; first compound 0.1 µM): 0.493 | relative viability ([2]; first compound 0.3162 µM): 0.212 | relative viability ([2]; first compound 1 µM): 0.331 | relative viability ([3]; first compound 0.001 µM): 0.609 | relative viability ([3]; first compound 0.003162 µM): 0.476 | relative viability ([3]; first compound 0.01 µM): 0.52 | relative viability ([3]; first compound 0.03162 µM): 0.0907 | relative viability ([3]; first compound 0.1 µM): 0.126

NCI-H650
relative viability ([1]; first compound 0.01 µM): 1.04 | relative viability ([1]; first compound 0.03162 µM): 1.08 | relative viability ([1]; first compound 0.1 µM): 0.969 | relative viability ([1]; first compound 0.3162 µM): 0.782 | relative viability ([1]; first compound 1 µM): 0.966 | relative viability ([2]; first compound 0.01 µM): 1.01 | relative viability ([2]; first compound 0.03162 µM): 0.801 | relative viability ([2]; first compound 0.1 µM): 0.922 | relative viability ([2]; first compound 1 µM): 0.905 | relative viability ([3]; first compound 0.001 µM): 0.451 | relative viability ([3]; first compound 0.003162 µM): 0.445 | relative viability ([3]; first compound 0.01 µM): 0.476 | relative viability ([3]; first compound 0.03162 µM): 0.312 | relative viability ([3]; first compound 0.1 µM): 0.18

NCI-H727
relative viability ([1]; first compound 0.01 µM): 0.836 | relative viability ([1]; first compound 0.03162 µM): 0.866 | relative viability ([1]; first compound 0.1 µM): 0.647 | relative viability ([1]; first compound 0.3162 µM): 0.632 | relative viability ([1]; first compound 1 µM): 0.611 | relative viability ([2]; first compound 0.01 µM): 0.39 | relative viability ([2]; first compound 0.03162 µM): 0.503 | relative viability ([2]; first compound 0.1 µM): 0.346 | relative viability ([2]; first compound 0.3162 µM): 0.363 | relative viability ([2]; first compound 1 µM): 0.376 | relative viability ([3]; first compound 0.001 µM): 0.601 | relative viability ([3]; first compound 0.003162 µM): 0.6 | relative viability ([3]; first compound 0.01 µM): 0.385 | relative viability ([3]; first compound 0.03162 µM): 0.466 | relative viability ([3]; first compound 0.1 µM): 0.309

NCI-H838
relative viability ([1]; first compound 0.01 µM): 0.996 | relative viability ([1]; first compound 0.03162 µM): 0.855 | relative viability ([1]; first compound 0.1 µM): 0.894 | relative viability ([1]; first compound 1 µM): 0.716 | relative viability ([2]; first compound 0.01 µM): 0.933 | relative viability ([2]; first compound 0.03162 µM): 0.85 | relative viability ([2]; first compound 0.1 µM): 0.903 | relative viability ([2]; first compound 0.3162 µM): 0.713 | relative viability ([2]; first compound 1 µM): 0.77 | relative viability ([3]; first compound 0.001 µM): 0.649 | relative viability ([3]; first compound 0.003162 µM): 0.605 | relative viability ([3]; first compound 0.01 µM): 0.827 | relative viability ([3]; first compound 0.03162 µM): 0.194 | relative viability ([3]; first compound 0.1 µM): 0.163

NCI-H1355
relative viability ([1]; first compound 0.01 µM): 0.973 | relative viability ([1]; first compound 0.03162 µM): 0.964 | relative viability ([1]; first compound 0.1 µM): 0.873 | relative viability ([1]; first compound 0.3162 µM): 0.811 | relative viability ([1]; first compound 1 µM): 0.759 | relative viability ([2]; first compound 0.01 µM): 0.66 | relative viability ([2]; first compound 0.03162 µM): 0.604 | relative viability ([2]; first compound 0.1 µM): 0.633 | relative viability ([2]; first compound 0.3162 µM): 0.602 | relative viability ([2]; first compound 1 µM): 0.329 | relative viability ([3]; first compound 0.001 µM): 0.422 | relative viability ([3]; first compound 0.003162 µM): 0.465 | relative viability ([3]; first compound 0.01 µM): 0.495 | relative viability ([3]; first compound 0.03162 µM): 0.291 | relative viability ([3]; first compound 0.1 µM): 0.315

NCI-H1395
relative viability ([1]; first compound 0.01 µM): 0.98 | relative viability ([1]; first compound 0.03162 µM): 1.01 | relative viability ([1]; first compound 0.1 µM): 1 | relative viability ([1]; first compound 0.3162 µM): 0.957 | relative viability ([1]; first compound 1 µM): 0.998 | relative viability ([2]; first compound 0.01 µM): 0.373 | relative viability ([2]; first compound 0.1 µM): 0.394 | relative viability ([2]; first compound 0.3162 µM): 0.477 | relative viability ([2]; first compound 1 µM): 0.38 | relative viability ([3]; first compound 0.001 µM): 0.491 | relative viability ([3]; first compound 0.003162 µM): 0.487 | relative viability ([3]; first compound 0.01 µM): 0.514 | relative viability ([3]; first compound 0.03162 µM): 0.354 | relative viability ([3]; first compound 0.1 µM): 0.292

NCI-H1437
relative viability ([1]; first compound 0.01 µM): 1.18 | relative viability ([1]; first compound 0.03162 µM): 1.11 | relative viability ([1]; first compound 0.1 µM): 1.25 | relative viability ([1]; first compound 0.3162 µM): 0.822 | relative viability ([1]; first compound 1 µM): 1.25 | relative viability ([2]; first compound 0.01 µM): 1.15 | relative viability ([2]; first compound 0.03162 µM): 1.16 | relative viability ([2]; first compound 0.1 µM): 1.11 | relative viability ([2]; first compound 0.3162 µM): 0.964 | relative viability ([2]; first compound 1 µM): 1.1 | relative viability ([3]; first compound 0.001 µM): 0.326 | relative viability ([3]; first compound 0.003162 µM): 0.335 | relative viability ([3]; first compound 0.01 µM): 0.371 | relative viability ([3]; first compound 0.03162 µM): 0.251 | relative viability ([3]; first compound 0.1 µM): 0.189

NCI-H1651
relative viability ([1]; first compound 0.01 µM): 0.7 | relative viability ([1]; first compound 0.03162 µM): 0.81 | relative viability ([1]; first compound 0.1 µM): 0.753 | relative viability ([1]; first compound 0.3162 µM): 0.683 | relative viability ([1]; first compound 1 µM): 0.734 | relative viability ([2]; first compound 0.01 µM): 0.221 | relative viability ([2]; first compound 0.03162 µM): 0.467 | relative viability ([2]; first compound 0.1 µM): 0.429 | relative viability ([2]; first compound 0.3162 µM): 0.525 | relative viability ([2]; first compound 1 µM): 0.447 | relative viability ([3]; first compound 0.001 µM): 0.365 | relative viability ([3]; first compound 0.003162 µM): 0.413 | relative viability ([3]; first compound 0.01 µM): 0.374 | relative viability ([3]; first compound 0.03162 µM): 0.299 | relative viability ([3]; first compound 0.1 µM): 0.121

NCI-H1666
relative viability ([1]; first compound 0.01 µM): 0.94 | relative viability ([1]; first compound 0.03162 µM): 1.05 | relative viability ([1]; first compound 0.1 µM): 0.933 | relative viability ([1]; first compound 0.3162 µM): 0.758 | relative viability ([1]; first compound 1 µM): 0.852 | relative viability ([2]; first compound 0.01 µM): 0.704 | relative viability ([2]; first compound 0.03162 µM): 0.834 | relative viability ([2]; first compound 0.1 µM): 0.828 | relative viability ([2]; first compound 0.3162 µM): 0.645 | relative viability ([2]; first compound 1 µM): 0.597 | relative viability ([3]; first compound 0.001 µM): 0.524 | relative viability ([3]; first compound 0.003162 µM): 0.6 | relative viability ([3]; first compound 0.01 µM): 0.541 | relative viability ([3]; first compound 0.03162 µM): 0.475 | relative viability ([3]; first compound 0.1 µM): 0.343

NCI-H1734
relative viability ([1]; first compound 0.01 µM): 0.827 | relative viability ([1]; first compound 0.03162 µM): 0.866 | relative viability ([1]; first compound 0.1 µM): 0.801 | relative viability ([1]; first compound 0.3162 µM): 0.795 | relative viability ([1]; first compound 1 µM): 0.604 | relative viability ([2]; first compound 0.01 µM): 0.61 | relative viability ([2]; first compound 0.03162 µM): 0.534 | relative viability ([2]; first compound 0.1 µM): 0.579 | relative viability ([2]; first compound 0.3162 µM): 0.794 | relative viability ([2]; first compound 1 µM): 0.363 | relative viability ([3]; first compound 0.001 µM): 0.455 | relative viability ([3]; first compound 0.003162 µM): 0.379 | relative viability ([3]; first compound 0.01 µM): 0.414 | relative viability ([3]; first compound 0.03162 µM): 0.239 | relative viability ([3]; first compound 0.1 µM): 0.156

NCI-H1755
relative viability ([1]; first compound 0.01 µM): 0.864 | relative viability ([1]; first compound 0.03162 µM): 0.892 | relative viability ([1]; first compound 0.1 µM): 0.956 | relative viability ([1]; first compound 0.3162 µM): 0.865 | relative viability ([1]; first compound 1 µM): 0.8 | relative viability ([2]; first compound 0.01 µM): 0.454 | relative viability ([2]; first compound 0.03162 µM): 0.421 | relative viability ([2]; first compound 0.1 µM): 0.531 | relative viability ([2]; first compound 0.3162 µM): 0.657 | relative viability ([2]; first compound 1 µM): 0.363 | relative viability ([3]; first compound 0.001 µM): 0.553 | relative viability ([3]; first compound 0.003162 µM): 0.646 | relative viability ([3]; first compound 0.01 µM): 0.638 | relative viability ([3]; first compound 0.03162 µM): 0.463 | relative viability ([3]; first compound 0.1 µM): 0.195
